From US8822517B2, “Arylosulfonamides for the treatment of CNS diseases” (Adamed SP. Z O.O., priority 2010, dated 2014) come the findings set out here.

Experiment [1] addresses serotoninergic 5-HT7 receptor (Homo sapiens, UniProt P34969). The experiment is described as follows: Binding assay 5-HT7 (h), [3H]LSD, CHO cells. More on the design: expressed in transfected cells; host or cells: CHO cells. To be noted: read-out: 5-HT7. The method, boiled down:
(§1)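 Radioligand displacement with compounds at 1×10^−6 M, detected by scintillation counting. Specific binding taken as total minus non-specific binding measured with excess unlabelled ligand.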

Another experiment concerns the target T1, muscarinic M3 receptor (Homo sapiens, UniProt P20309).
T1 construct: expressed in transfected cells; host or cells: CHO cells
Kind of experiment: Binding assay M3 (h), [3H]4-DAMP, CHO cells. To be noted: read-out: M3 [%]. As to the method: (§2) The specific ligand binding to the receptors is defined as the difference between the total binding and the nonspecific binding determined in the presence of an excess of so unlabelled ligand.
(§3) The specific Ligand binding to the receptor is defined as the difference between total and non-specific binding determined in the presence of an excess of unlabelled ligand. The compounds were tested at a concentration of 1×10^−6 M, and scintillation counting was the method of detection of ligand binding.

Another experiment addresses dopaminergic D2 receptor (Homo sapiens, UniProt P14416). Kind of experiment: Binding assay D2S (h), [3H]methyl-spiperone, HEK-293 cells. To be noted: read-out: D2 [%]. More on the design: expressed in transfected cells; host or cells: HEK-293 cells. The method, boiled down: as §1
The next experiment concerns sigma σ receptor. Kind of experiment: Binding assay σ (non-selective), [3H]DTG, rat cerebral cortex. To be noted: percent inhibition of control specific binding; compounds tested at 1×10^−6 M. As to the method: as §2, §3
The subject of another experiment is adrenergic α1 receptor. The experiment is described as follows: Binding assay α1 (non-selective), [3H]prazosin, rat cerebral cortex. To be noted: percent inhibition of control specific binding; compounds tested at 1×10^−6 M. The gist of the method: as §1
The target of experiment [2] is serotoninergic 5-HT6 receptor (Homo sapiens, UniProt P50406). The experiment is described as follows: Binding assay 5-HT6 (h), [3H]LSD, CHO cells. More on the design: expressed in transfected cells; host or cells: CHO cells. To be noted: read-out: 5-HT6. The gist of the method:
as §1

For experiment [3], the target named is histaminergic H1 receptor (Homo sapiens, UniProt P35367). Kind of experiment: Binding assay H1 (h), [3H]pyrilamine, HEK-293 cells. Also on record: expressed in transfected cells; host or cells: HEK-293 cells. The note with it: read-out: H1 [%]. As to the method:
as §2, §3

In experiment [4] the target is T2, serotoninergic 5-HT1A receptor (Homo sapiens, UniProt P08908).
T2 sequence (P08908 1-422): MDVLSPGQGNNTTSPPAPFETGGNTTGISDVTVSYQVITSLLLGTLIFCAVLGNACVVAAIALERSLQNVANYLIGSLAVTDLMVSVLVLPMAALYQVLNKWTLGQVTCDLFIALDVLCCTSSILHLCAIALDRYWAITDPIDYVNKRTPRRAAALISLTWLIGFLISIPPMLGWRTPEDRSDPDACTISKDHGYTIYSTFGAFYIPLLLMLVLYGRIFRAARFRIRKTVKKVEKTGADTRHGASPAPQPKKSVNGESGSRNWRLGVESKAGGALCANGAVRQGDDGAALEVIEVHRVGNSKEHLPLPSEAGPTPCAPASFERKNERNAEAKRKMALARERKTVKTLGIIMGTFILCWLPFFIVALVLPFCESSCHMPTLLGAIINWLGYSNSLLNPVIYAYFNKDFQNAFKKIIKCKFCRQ
The experiment is described as follows: Binding assay 5-HT1A (h), [3H]8-OH-DPAT, HEK-293 cells. Also on record: expressed in transfected cells; host or cells: HEK-293 cells. The note with it: read-out: 5-HT1A. The method, boiled down:
as §1

A further experiment addresses T3, adrenergic α2C receptor (Homo sapiens, UniProt P18825).
T3 sequence (P18825 1-462): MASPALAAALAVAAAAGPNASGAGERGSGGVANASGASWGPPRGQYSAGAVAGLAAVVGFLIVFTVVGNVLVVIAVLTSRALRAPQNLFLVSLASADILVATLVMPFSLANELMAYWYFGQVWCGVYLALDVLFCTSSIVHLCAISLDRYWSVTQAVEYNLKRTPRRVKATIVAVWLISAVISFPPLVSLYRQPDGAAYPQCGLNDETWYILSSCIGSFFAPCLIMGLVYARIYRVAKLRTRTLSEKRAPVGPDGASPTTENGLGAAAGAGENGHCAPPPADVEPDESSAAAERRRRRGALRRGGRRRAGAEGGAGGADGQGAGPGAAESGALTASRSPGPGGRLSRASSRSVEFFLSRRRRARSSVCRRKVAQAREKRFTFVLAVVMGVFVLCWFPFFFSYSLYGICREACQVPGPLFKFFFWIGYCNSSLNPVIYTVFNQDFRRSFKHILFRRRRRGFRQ
Kind of experiment: Binding assay α2C (h), [3H]RX 821002, CHO cells. More on the design: expressed in transfected cells; host or cells: CHO cells. The note with it: read-out: α2C [%]. As to the method:
as §2, §3

For experiment [5], the target named is serotoninergic 5-HT2A receptor (Homo sapiens, UniProt P28223). The experiment is described as follows: Binding assay 5-HT2A (h), [3H]ketanserin, HEK-293 cells. The note with it: read-out: 5-HT2A. Also on record: expressed in transfected cells; host or cells: HEK-293 cells. The gist of the method: as §1
Experiment [6] concerns the target T4, serotoninergic receptor 5-HT2C (Homo sapiens, UniProt P28335).
T4 construct: expressed in transfected cells; host or cells: HEK-293 cells
T4 sequence (P28335 33-458): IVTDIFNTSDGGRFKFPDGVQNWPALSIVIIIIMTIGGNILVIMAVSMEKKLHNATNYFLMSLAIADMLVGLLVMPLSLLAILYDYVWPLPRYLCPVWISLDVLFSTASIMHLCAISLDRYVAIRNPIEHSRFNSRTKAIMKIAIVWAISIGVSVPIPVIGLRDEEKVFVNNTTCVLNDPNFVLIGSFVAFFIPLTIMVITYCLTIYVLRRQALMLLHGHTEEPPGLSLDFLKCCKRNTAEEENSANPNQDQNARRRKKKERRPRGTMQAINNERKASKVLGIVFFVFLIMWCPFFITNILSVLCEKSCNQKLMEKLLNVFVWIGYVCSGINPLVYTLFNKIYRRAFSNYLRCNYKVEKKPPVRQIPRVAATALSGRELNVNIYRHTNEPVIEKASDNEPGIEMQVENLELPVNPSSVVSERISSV
The experiment is described as follows: Binding assay 5-HT2C (h), [3H]mesulergine, HEK-293 cells. The note with it: read-out: 5-HT2C [%]. As to the method:
as §2, §3

Another experiment has as its target dopaminergic D3 receptor (Homo sapiens, UniProt P35462). Kind of experiment: Binding assay D3 (h), [3H]methyl-spiperone, CHO cells. More on the design: expressed in transfected cells; host or cells: CHO cells. The note with it: read-out: D3 [%]. The gist of the method:
as §1

In experiment [7] the target is T5, serotonine transporter (SERT) receptor (Homo sapiens, UniProt P31645).
T5 construct: expressed in transfected cells; host or cells: CHO cells
The experiment is described as follows: Binding assay SERT (h), [3H]imipramine, CHO cells. The note with it: read-out: SERT [%]. The method, boiled down:
as §1

The structures appear in SMILES notation.

Sequence of serotoninergic 5-HT2A receptor (P28223 whole entry): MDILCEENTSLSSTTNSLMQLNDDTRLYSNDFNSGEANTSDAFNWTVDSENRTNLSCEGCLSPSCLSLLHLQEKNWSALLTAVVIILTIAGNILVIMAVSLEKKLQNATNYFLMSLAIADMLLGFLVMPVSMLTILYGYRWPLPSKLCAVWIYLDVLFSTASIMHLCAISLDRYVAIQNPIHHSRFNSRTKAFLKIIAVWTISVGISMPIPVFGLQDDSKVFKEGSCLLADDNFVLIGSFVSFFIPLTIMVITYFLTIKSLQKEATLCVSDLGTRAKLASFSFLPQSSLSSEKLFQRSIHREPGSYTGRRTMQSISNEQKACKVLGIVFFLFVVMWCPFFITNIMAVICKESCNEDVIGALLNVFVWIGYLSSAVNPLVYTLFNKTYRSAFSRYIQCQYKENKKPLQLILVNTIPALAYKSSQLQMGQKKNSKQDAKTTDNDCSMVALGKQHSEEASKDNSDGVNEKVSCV
Sequence of histaminergic H1 receptor (P35367 whole entry): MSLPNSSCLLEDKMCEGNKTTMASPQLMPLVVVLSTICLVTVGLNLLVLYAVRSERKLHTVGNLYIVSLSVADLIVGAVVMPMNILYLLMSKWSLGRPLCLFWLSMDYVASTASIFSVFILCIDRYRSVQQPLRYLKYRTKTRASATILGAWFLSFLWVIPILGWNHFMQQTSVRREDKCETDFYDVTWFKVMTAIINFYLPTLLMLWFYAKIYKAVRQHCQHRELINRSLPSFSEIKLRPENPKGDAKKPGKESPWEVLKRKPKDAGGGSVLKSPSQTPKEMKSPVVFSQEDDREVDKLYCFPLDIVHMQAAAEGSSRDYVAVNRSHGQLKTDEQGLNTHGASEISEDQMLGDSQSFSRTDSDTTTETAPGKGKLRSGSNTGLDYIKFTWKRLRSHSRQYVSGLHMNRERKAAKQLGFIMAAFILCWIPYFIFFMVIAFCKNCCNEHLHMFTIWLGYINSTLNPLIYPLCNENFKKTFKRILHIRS
Sequence of serotoninergic 5-HT7 receptor (P34969 whole entry): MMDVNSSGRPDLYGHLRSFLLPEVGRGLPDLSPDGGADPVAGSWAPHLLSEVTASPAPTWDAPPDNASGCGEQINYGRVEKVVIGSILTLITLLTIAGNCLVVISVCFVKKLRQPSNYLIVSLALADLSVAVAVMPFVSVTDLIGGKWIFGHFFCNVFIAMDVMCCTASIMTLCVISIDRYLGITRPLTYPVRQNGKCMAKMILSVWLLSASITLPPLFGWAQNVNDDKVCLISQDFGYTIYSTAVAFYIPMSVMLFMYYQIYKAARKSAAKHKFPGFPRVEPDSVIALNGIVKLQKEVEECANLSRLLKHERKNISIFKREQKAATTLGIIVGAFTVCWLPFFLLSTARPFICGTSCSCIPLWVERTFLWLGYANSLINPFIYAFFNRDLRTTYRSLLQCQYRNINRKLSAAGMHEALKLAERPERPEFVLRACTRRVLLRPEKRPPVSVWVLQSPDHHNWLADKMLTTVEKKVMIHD
Sequence of serotoninergic 5-HT6 receptor (P50406 whole entry): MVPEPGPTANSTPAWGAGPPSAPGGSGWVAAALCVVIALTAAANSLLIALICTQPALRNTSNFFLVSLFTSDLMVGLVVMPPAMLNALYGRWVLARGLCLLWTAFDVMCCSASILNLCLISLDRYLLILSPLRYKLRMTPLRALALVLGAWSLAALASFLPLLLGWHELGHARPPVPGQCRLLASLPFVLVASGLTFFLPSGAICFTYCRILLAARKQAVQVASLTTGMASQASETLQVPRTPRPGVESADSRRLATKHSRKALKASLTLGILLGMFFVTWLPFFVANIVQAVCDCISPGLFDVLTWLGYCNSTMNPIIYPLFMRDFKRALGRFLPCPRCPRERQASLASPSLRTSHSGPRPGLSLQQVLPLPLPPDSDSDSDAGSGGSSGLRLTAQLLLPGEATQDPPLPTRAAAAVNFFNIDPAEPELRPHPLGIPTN
T5 sequence (P31645 whole entry): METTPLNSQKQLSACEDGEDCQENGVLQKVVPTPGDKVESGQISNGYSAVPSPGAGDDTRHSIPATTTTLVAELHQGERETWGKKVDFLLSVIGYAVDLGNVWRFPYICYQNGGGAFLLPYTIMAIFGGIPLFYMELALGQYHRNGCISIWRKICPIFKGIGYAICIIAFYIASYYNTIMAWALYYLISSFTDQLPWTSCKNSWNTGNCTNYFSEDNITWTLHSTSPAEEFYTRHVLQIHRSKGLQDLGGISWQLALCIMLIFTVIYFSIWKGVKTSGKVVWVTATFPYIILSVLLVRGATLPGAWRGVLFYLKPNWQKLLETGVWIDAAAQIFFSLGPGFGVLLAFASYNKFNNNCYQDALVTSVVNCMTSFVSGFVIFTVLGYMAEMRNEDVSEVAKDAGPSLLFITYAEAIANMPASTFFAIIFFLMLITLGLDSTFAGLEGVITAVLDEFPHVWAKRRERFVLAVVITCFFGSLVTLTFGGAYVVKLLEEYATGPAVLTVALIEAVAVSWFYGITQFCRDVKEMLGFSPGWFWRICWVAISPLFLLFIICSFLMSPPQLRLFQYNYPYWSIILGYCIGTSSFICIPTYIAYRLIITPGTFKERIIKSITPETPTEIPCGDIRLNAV
T1 sequence (P20309 whole entry): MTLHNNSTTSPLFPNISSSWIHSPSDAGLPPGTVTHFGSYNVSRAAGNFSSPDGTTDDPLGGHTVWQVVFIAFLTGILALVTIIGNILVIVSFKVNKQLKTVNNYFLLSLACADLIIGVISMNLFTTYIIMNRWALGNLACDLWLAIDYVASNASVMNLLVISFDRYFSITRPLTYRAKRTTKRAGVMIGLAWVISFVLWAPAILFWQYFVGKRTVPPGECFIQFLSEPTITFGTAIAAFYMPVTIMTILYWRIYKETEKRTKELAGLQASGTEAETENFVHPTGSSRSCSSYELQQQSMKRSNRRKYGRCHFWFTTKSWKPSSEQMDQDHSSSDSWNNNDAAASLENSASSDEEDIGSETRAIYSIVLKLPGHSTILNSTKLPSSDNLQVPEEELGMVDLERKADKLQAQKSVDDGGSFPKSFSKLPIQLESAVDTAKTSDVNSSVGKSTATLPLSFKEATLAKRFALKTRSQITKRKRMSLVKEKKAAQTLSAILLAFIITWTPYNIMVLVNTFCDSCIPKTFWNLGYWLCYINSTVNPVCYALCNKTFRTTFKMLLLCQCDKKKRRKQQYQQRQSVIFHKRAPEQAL
Sequence of dopaminergic D3 receptor (P35462 whole entry): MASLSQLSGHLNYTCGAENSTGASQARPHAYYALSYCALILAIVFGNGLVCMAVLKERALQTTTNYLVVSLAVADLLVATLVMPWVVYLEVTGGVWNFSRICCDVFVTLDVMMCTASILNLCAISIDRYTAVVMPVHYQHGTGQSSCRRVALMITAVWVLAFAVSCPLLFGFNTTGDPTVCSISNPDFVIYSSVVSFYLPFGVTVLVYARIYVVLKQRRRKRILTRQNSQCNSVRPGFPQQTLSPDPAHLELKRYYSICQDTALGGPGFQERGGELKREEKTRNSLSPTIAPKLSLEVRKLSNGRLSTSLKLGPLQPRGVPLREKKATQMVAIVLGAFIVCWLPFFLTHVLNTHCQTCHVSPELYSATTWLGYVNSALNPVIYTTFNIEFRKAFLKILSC
Sequence of dopaminergic D2 receptor (P14416 1-414 isoform P14416-2): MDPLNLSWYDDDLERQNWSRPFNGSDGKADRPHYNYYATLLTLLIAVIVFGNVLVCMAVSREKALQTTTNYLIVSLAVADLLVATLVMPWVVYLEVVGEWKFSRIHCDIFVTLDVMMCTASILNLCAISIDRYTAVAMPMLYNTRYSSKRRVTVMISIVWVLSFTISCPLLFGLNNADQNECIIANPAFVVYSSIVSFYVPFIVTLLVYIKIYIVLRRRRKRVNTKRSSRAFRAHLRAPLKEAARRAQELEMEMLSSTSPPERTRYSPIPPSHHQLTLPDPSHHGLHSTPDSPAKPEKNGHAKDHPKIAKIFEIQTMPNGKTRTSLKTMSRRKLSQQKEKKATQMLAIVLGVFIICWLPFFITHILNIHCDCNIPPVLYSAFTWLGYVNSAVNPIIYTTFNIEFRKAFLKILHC

For `O=S(=O)(NCCCN1CCN(c2nsc3ccccc23)CC1)c1ccc(F)cc1` [Compound 248, N-[3-[4-(1,2-Benzothiazol-3-yl)piperazin-1-yl]propyl]-4-fluorobenzenesulphonamide], the inhibition at 1 µM in experiment [1] was determined as 98%; on muscarinic M3 receptor it was 13%; on dopaminergic D2 receptor, 99%; in [2], 98%; in [3] it was 97%; in [4], 97%. Besides, the inhibition at 1 µM was found to be 93% at adrenergic α2C receptor; 101% in [5]; 84% in experiment [6]; 100% on dopaminergic D3 receptor; 80% in experiment [7]. Further, the “σ [%]” value with sigma σ receptor worked out at 64%. Also, the “α1 [%]” value with adrenergic α1 receptor is listed as 91%.
Regarding `O=S(=O)(NCCCN1CCN(c2nsc3ccccc23)CC1)c1cccc(Br)c1` [Compound 253, N-[3-[4-(1,2-Benzothiazol-3-yl)piperazin-1-yl]propyl]-3-bromobenzenesulphonamide], the inhibition at 1 µM in [1] came out at 99%; on muscarinic M3 receptor, 24%; on dopaminergic D2 receptor it was 99%; in experiment [2], 101%; in experiment [3], 98%; in experiment [4], 99%. Moreover, the inhibition at 1 µM is 102% on adrenergic α2C receptor; 101% in experiment [5]; 89% in [6]; 99% at dopaminergic D3 receptor; 79% in experiment [7]. In addition, the “σ [%]” value with sigma σ receptor turned out to be 64%. Besides, the “α1 [%]” value in the experiment on adrenergic α1 receptor was 97%.
For the compound `COc1cccc(S(=O)(=O)NCCCCN2CCC(c3noc4cc(F)ccc34)CC2)c1` [Compound 300, N-[4-[4-(6-Fluoro-1,2-benzoxazol-3-yl)piperidin-1-yl]butyl]-3-methoxybenzenesulphonamide], the inhibition at 1 µM in [1] was 99%; at muscarinic M3 receptor, 18%; on dopaminergic D2 receptor it was 96%; in experiment [2], 89%; in experiment [3], 87%; in experiment [4], 80%. Moreover, the inhibition at 1 µM at adrenergic α2C receptor stood at 94%; in experiment [5], 102%; in [6] it was 49%; on dopaminergic D3 receptor it was 96%; in [7], 30%. Moreover, the “σ [%]” value in the experiment on sigma σ receptor was 83%. Besides, the “α1 [%]” value in the experiment with adrenergic α1 receptor was 96%.
For the compound `O=S(=O)(NCCCN1CCN(c2nsc3ccccc23)CC1)c1ccc(Br)cc1` [Compound 252, N-[3-[4-(1,2-Benzothiazol-3-yl)piperazin-1-yl]propyl]-4-bromobenzenesulphonamide], the inhibition at 1 µM is 99% in [1]; 16% on muscarinic M3 receptor; 97% at dopaminergic D2 receptor; 93% in experiment [2]; -77% in experiment [3]; 99% in [4]. For the same compound, the inhibition at 1 µM is 95% on adrenergic α2C receptor; 101% in experiment [5]; 84% in experiment [6]; 98% on dopaminergic D3 receptor; 94% in [7]. For the same compound, the “σ [%]” value with sigma σ receptor is 59%. Besides, in the experiment with adrenergic α1 receptor, the “α1 [%]” value turned out to be 27%.
`O=S(=O)(NCCCN1CCN(c2nsc3ccccc23)CC1)c1csc2ccccc12` [Compound 263, N-[3-[4-(1,2-Benzothiazol-3-yl)piperazin-1-yl]propyl]benzothiophene-3-sulphonamide]: the inhibition at 1 µM stood at 98% in experiment [1]; 7% on muscarinic M3 receptor; 98% at dopaminergic D2 receptor; 96% in experiment [2]; 93% in experiment [3]; 98% in experiment [4]. In addition, the inhibition at 1 µM at adrenergic α2C receptor was 93%; in [5] it was 102%; in [6], 87%; at dopaminergic D3 receptor it was 98%; in experiment [7], 87%. Moreover, in the experiment on sigma σ receptor, the “σ [%]” value is reported as 49%. Also, the “α1 [%]” value in the experiment with adrenergic α1 receptor is on record as 90%.
Regarding `O=S(=O)(NCCCCN1CCN(c2nsc3ccccc23)CC1)c1cccc2scnc12` [Compound 243, N-[4-[4-(1,2-Benzothiazol-3-yl)piperazin-1-yl]butyl]-1,3-benzothiazole-4-sulphonamide], the inhibition at 1 µM in experiment [1] was 99%; on muscarinic M3 receptor it was 10%; at dopaminergic D2 receptor, 100%; in experiment [2] it was 73%; in experiment [3], 93%; in experiment [4], 98%. The inhibition at 1 µM on adrenergic α2C receptor came out at 96%; in experiment [5], 100%; in experiment [6], 81%; at dopaminergic D3 receptor, 93%; in [7], 63%. Further, the “σ [%]” value in the experiment with sigma σ receptor was 29%. Also, the “α1 [%]” value with adrenergic α1 receptor is recorded as 97%.
As to `O=S(=O)(NCCCN1CCN(c2nsc3ccccc23)CC1)c1ccc(Cl)s1` [Compound 196, N-[3-[4-(1,2-Benzothiazol-3-yl)piperazin-1-yl]propyl]-5-chloro-thiophene-2-sulphonamide], the inhibition at 1 µM in experiment [1] is 100%; on muscarinic M3 receptor, 18%; on dopaminergic D2 receptor it was 98%; in [2] it was 92%; in experiment [3], 93%; in experiment [4], 99%. Further, the inhibition at 1 µM at adrenergic α2C receptor was determined as 95%; in experiment [5], 102%; in [6] it was 89%; at dopaminergic D3 receptor, 97%; in experiment [7] it was 75%. Moreover, the “σ [%]” value with sigma σ receptor worked out at 66%. Moreover, the “α1 [%]” value with adrenergic α1 receptor came out at 93%.
